US20080132536A1, “PYRAZOLO [3,4-B] PYRIDINE COMPOUNDS, AND THEIR USE AS PDE4 INHIBITORS” (Glaxo Group Limited, priority 2003, published 2008)
One block for each compound: values may come before it.

Tests used:
[1] = system: conscious ferret; assay: In Vivo Assay 4: therapeutic index of orally-administered PDE4 inhibitors in the conscious ferret (LPS-induced pulmonary neutrophilia and emesis); parameters: species or system ferret (Mustela Pulorius Furo); details: p.o.
Procedure: PDE4 inhibitors are prepared for oral (p.o.) administration by dissolving in a fixed volume (ca. 1 ml) of acetone and then adding cremophor to ca. 20% of the final volume. Acetone is evaporated by directing a flow of nitrogen gas onto the solution. Once the acetone is removed, the solution is made up to final volume with distilled water. LPS is dissolved in phosphate buffered saline.
Male ferrets (Mustela Pulorius Furo, weighing 1-2 kg) are transported and allowed to acclimatise for not less than 7 days. The diet comprises SDS diet C pelleted food given ad lib with Whiskers™ cat food given 3 times per week. The animals are supplied with pasteurised animal grade drinking water changed daily.
PDE4 inhibitors are administered orally (p.o.), using a dose volume of ca. 1 ml/kg. […] The animals are constantly observed and any emetic episodes (retching and vomiting) or behavioural changes are recorded. […]
About thirty minutes after oral dosing with compound or vehicle control, the ferrets are placed into sealed perspex containers and exposed to an aerosol of LPS (ca. 30 μg/ml=ca. 30 ug/ml) for ca. 10 minutes. […] All emetic episodes and behavioural changes are recorded.
About six hours after LPS exposure the animals are killed by overdose of sodium pentobarbitone administered intraperitoneally. […] From this, the total number of neutrophils in the BAL sample is determined. […]

[2] = Text: Micronisation usually involves subjecting the compound/salt to collisional and/or abrasional forces in a fast-flowing circular or spiral/vortex-shaped airstream often including a cyclone component.
In particle size measurements, D90, D50 and D10 respectively mean that 90%, 50% and 10% of the material is less than the micron size specified. D50 is the median particle size. DV90, DV50 and […] respectively mean that 90%, 50% and 10% by volume of the material is less than the micron size specified. DM90, DM50 and DM10 respectively mean that 90%, 50% and 10% by weight of the material is less than the micron size specified.
Laser diffraction measurement of particle size can use a dry method (wherein a suspension of the compound/salt in an airflow crosses the laser beam) or a wet method [wherein a suspension of the compound/salt in a liquid dispersing medium, such as isooctane or (e.g. if compound is soluble in isooctane) 0.1% Tween 80 in water, crosses the laser beam]. With laser diffraction, particle size is preferably calculated using the Fraunhofer calculation; and/or preferably a Malvern Mastersizer or Sympatec apparatus is used for measurement.
• Purpose: To micronise Example 73, 75, 98, 283, 304, 306, 307, 308, 309, 310, 311, 312, 313, 314 or 314A or 333 (described hereinafter), usually in an amount of approximately 600-1000 mg thereof, using a Jetpharma MC 1 micronizer. • The parent (unmicronised) and micronised materials are analyzed for particle size by laser diffraction and crystallinity by PXRD.
The micronizer is assembled. The narrow head of the venturi inlet is positioned below and slightly forward of the material inlet port and is measured with a micro-caliper to make sure that it is inserted correctly. The ring (R) and venturi (V) pressures are adjusted according to the values specified in the experimental design (refer to experimental section below) by adjusting the valves on the pressure gauges on the micronizer. The setup is checked for leakage by observing if there is any fluctuation in the reading of the pressure gauges.
Balance performance is checked with calibration weights. Specified amount of the parent material (see e.g. section on experimental run Procedure 1 for Example 307) is fed into the input container of the micronizer using a spatula. The input container plus material is weighed. The equipment pressure is monitored during the micronization process.
Upon completion of the micronising run, the nitrogen supply is shut off and the micronised material is allowed to settle into the micronizer container. The micronised powder in the micronizer container (collection vessel) and the cyclone (above the recovery vessel) are collected together into a pre-weighed and labelled collection vial. The weight of the micronised material is recorded. The input container is re-weighed in order to calculate the amount of input material by difference. The micronizer is disassembled and residual PDE4 compound on the micronizer inner surface is rinsed with 70/30 isopropyl alcohol/water and collected into a flask. The micronizer is then thoroughly cleaned in a Lancer washing machine and dried before subsequent runs are performed.

[3] = biological target: T1, PDE4B (human recombinant) (Homo sapiens, UniProt Q07343); assay: PDE4B inhibition, radioactive SPA and/or IMAP fluorescence polarisation (FP) assay; assay type: biochemical; details: for IC50: one reading or average of several (ca. 2-6) readings, SPA and/or FP assay, range given for a group of Examples, read-out: PDE4B pIC50 (±about 0.5) (converted)
T1 construct: made in house
Text: Human recombinant PDE4B, in particular the 2B splice variant thereof (HSPDE4B2B), is disclosed in WO 94/20079 and also M. M. McLaughlin et al., “A low Km, rolipram-sensitive, cAMP-specific phosphodiesterase from human brain: cloning and expression of cDNA, biochemical characterisation of recombinant protein, and tissue distribution of mRNA”, J. Biol. Chem., 1993, 268, 6470-6476. For example, in Example 1 of WO 94/20079, human recombinant PDE4B is described as being expressed in the PDE-deficient yeast Saccharomyces cerevisiae strain GL62, e.g. after induction by addition of 150 uM CuSO4, and 100,000×g supernatant fractions of yeast cell lysates are described for use in the harvesting of PDE4B enzyme.
The ability of compounds to inhibit catalytic activity at PDE4B or 4D (human recombinant), PDE3 (from bovine aorta), PDE5 (human recombinant) or PDE6 (from bovine retina) can optionally be determined by Scintillation Proximity Assay (SPA) in 96-well format.
Test compounds (as a solution in DMSO, preferably about 2 microlitre (ul) volume of DMSO solution) are preincubated at ambient temperature (room temperature, e.g. 19-23° C.) in Wallac Isoplates (code 1450-514) with PDE enzyme in 50 mM Tris-HCl buffer pH 7.5, 8.3 mM MgCl2, 1.7 mM EGTA, 0.05% (w/v) bovine serum albumin for 10-30 minutes (usually 30 minutes). The enzyme concentration is adjusted so that no more than 20% hydrolysis of the substrate defined below occurs in control wells without compound, during the incubation. For the PDE3, PDE4B and PDE4D assays, [5′,8-3H]Adenosine 3′,5′-cyclic phosphate (Amersham Pharmacia Biotech, code TRK.559; or Amersham Biosciences UK Ltd, Pollards Wood, Chalfont St Giles, Buckinghamshire HP8 4SP, UK) is added to give 0.05 uCi per well and about 10 nM final concentration. For the PDE5 and PDE6 assays, [8-^3H]Guanosine 3′,5′-cyclic phosphate (Amersham Pharmacia Biotech, code TRK.392) is added to give 0.05 uCi per well and about 36 nM final concentration. Plates containing assay mixture, preferably approx. 100 ul volume of assay mixture, are mixed on an orbital shaker for 5 minutes and incubated at ambient temperature for 1 hour. Phosphodiesterase SPA beads (Amersham Pharmacia Biotech, code RPNQ 0150) are added (about 1 mg per well) to terminate the assay. Plates are sealed and shaken and allowed to stand at ambient temperature for 35 minutes to 1 hour (preferably 35 minutes) to allow the beads to settle. Bound radioactive product is measured using a WALLAC TRILUX 1450 Microbeta scintillation counter. For inhibition curves, 10 concentrations (1.5 nM-30 uM) of each compound are assayed. Curves are analysed using ActivityBase and XLfit (ID Business Solutions Limited, 2 Ocean Court, Surrey Research Park, Guildford, Surrey GU2 7QB, United Kingdom) Results are expressed as pIC50 values.
The ability of compounds to inhibit catalytic activity at PDE4B (human recombinant) or PDE4D (human recombinant) can optionally be determined by IMAP Fluorescence Polarisation (FP) assay (IMAP Explorer kit, available from Molecular Devices Corporation, Sunnydale, Calif., USA; Molecular Devices code: R8062) in 384-well format.
The IMAP FP assay is able to measure PDE activity in an homogenous, non-radioactive assay format. The FP assay uses the ability of immobilised trivalent metal cations, coated onto nanoparticles (tiny beads), to bind the phosphate group of Fl-AMP that is produced on the hydrolysis of fluorescein-labelled (Fl) cyclic adenosine mono-phosphate (Fl-cAMP) to the non-cyclic Fl-AMP form. […] Binding of Fl-AMP product to the beads (coated with the immobilised trivalent cations) slows the rotation of the bound Fl-AMP and leads to an increase in the fluorescence polarisation ratio of parallel to perpendicular light. Inhibition of the PDE reduces/inhibits this signal increase. […]

[4] = micronised, V = 5 to 7 bar, R = 3 to 4 bar

T1 sequence (Q07343 1-564 isoform Q07343-2): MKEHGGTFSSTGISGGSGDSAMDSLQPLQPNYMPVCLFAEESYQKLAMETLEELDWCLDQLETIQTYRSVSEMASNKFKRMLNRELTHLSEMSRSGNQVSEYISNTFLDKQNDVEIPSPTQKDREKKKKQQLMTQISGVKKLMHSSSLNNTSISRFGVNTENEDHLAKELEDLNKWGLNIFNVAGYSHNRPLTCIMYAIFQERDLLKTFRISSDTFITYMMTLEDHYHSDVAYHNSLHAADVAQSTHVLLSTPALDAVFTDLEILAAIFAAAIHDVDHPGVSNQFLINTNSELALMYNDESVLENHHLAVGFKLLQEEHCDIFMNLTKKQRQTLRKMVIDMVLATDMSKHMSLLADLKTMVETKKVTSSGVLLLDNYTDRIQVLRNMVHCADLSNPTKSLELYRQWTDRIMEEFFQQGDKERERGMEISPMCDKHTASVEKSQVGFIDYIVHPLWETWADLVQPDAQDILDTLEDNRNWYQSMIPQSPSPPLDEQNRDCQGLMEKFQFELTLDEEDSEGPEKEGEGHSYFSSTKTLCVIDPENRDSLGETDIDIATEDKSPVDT

SMILES: O=C(Nc1c(Cl)cncc1Cl)c1ccc(OC(F)F)c(OCC2CC2)c1 [roflumilast]
D20 for emesis (dose giving 20% incidence of emesis) [1]: about 0.46 mg/kg
D50 for ferret neutrophilia (dose giving 50% inhibition of LPS-induced pulmonary neutrophilia) [1]: about 0.42 mg/kg

SMILES: CCn1ncc2c(NC3CCOCC3)c(C(=O)N[C@@H](C(N)=O)c3ccccc3)cnc21 [Example 25, N-[(1R)-2-amino-2-oxo-1-phenylethyl]-1-ethyl-4-(tetrahydro-2H-pyran-4-ylamino)-1H-pyrazolo[3,4-b]pyridine-5-carboxamide]
IC50 [3]: 31.6 to 70.8 nM

SMILES: CCn1ncc2c(NC3CCOCC3)c(C(=O)N[C@H](C)c3ccc(OC)cc3)cnc21 [Example 63, 1-ethyl-N-{(1R)-1-[4-(methyloxy)phenyl]ethyl}-4-(tetrahydro-2H-pyran-4-ylamino)-1H-pyrazolo[3,4-b]pyridine-5-carboxamide]
PDE4B inhibitory activity compared with the comparable Example of opposite stereochemistry at the CR4R5 (benzylic) carbon atom ([3]; comparators: Examples 6, 7, 29, 26, 64, 126, 124, 170, 177): greater PDE4B inhibitory activity
IC50 [3]: 0.794 to 5.01 nM

Second part, the compound after the results:

Particle Size Data D10 (micronised material) [2, 4]: D10 = 0.84 microns
Particle Size Data D50 (micronised material) [2, 4]: D50 = 1.56 microns
Particle Size Data D90 (micronised material) [2, 4]: D90 = 2.74 microns
Particle Size Data D10 (unmicronised material) ([2]; unmicronised): D10 = 2.48 microns
Particle Size Data D50 (unmicronised material) ([2]; unmicronised): D50 = 8.98 microns
Particle Size Data D90 (unmicronised material) ([2]; unmicronised): D90 = 24.14 microns
SMILES: CCC(NC(=O)c1cnc2c(cnn2CC)c1NC1CCOCC1)c1ccc(C)cc1C.Cl (single isomer, unassigned; enantiomer 2) [Example 307, N-[1-(2,4-dimethylphenyl)propyl]-1-ethyl-4-(tetrahydro-2H-pyran-4-ylamino)-1H-pyrazolo[3,4-b]pyridine-5-carboxamide (Enantiomer 2) hydrochloride]

IC50 [3]: 0.1 to 2 nM
SMILES: CCn1ncc2c(NC3CCCC(O)C3)c(C(=O)N[C@H](C)c3ccc(C)cc3)cnc21 (single isomer, unassigned; diastereoisomer 2) [Example 306]

IC50 [3]: 0.501 to 3.16 nM
SMILES: CCn1ncc2c(N[C@H]3CC[C@@H](C(N)=O)CC3)c(C(=O)N[C@H](C)c3ccccc3)cnc21 [Example 354, 4-{[cis-4-(aminocarbonyl)cyclohexyl]amino}-1-ethyl-N-[(1R)-1-phenylethyl]-1H-pyrazolo[3,4-b]pyridine-5-carboxamide]

IC50 [3]: 31.6 to 70.8 nM
SMILES: CCn1ncc2c(NC3CCOCC3)c(C(=O)N[C@@H](C)c3ccc(OC)cc3)cnc21 [Example 64, 1-ethyl-N-{(1S)-1-[4-(methyloxy)phenyl]ethyl}-4-(tetrahydro-2H-pyran-4-ylamino)-1H-pyrazolo[3,4-b]pyridine-5-carboxamide]
